# Measured values as given in ChEMBL document CHEMBL5257026, “Progress and prospects on DENV protease inhibitors” (Eur J Med Chem, 2016).
# Residues, ends and D or L forms follow the SMILES beside them.
# Experiments:
# [1] = Inhibition of DENV4 NS2B-NS3 protease expressed in Escherichia coli BL21 (DE3) using Bz-Nle-Lys-Arg-Arg-AMC as substrate preincubated for 30 mins followed by substrate addition by fluorescence plate reader analysis; parameters: species or system dengue virus type 4
# [2] = Inhibition of DENV3 NS2B-NS3 protease expressed in Escherichia coli BL21 (DE3) using Bz-Nle-Lys-Arg-Arg-AMC as substrate preincubated for 30 mins followed by substrate addition by fluorescence plate reader analysis; parameters: species or system dengue virus type 3
# [3] = Inhibition of DENV2 NS2B-NS3 protease expressed in Escherichia coli BL21 (DE3) using Bz-Nle-Lys-Arg-Arg-AMC as substrate preincubated for 30 mins followed by substrate addition by fluorescence plate reader analysis; parameters: species or system dengue virus type 2
# [4] = Inhibition of DENV1 NS2B-NS3 protease expressed in Escherichia coli BL21 (DE3) using Bz-Nle-Lys-Arg-Arg-AMC as substrate preincubated for 30 mins followed by substrate addition by fluorescence plate reader analysis; parameters: species or system dengue virus type 1
# [5] = Inhibition of DENV4 recombinant NS2B-NS3 protease expressed in Escherichia coli using Abz-RRRRSAG-nY-NH2 as substrate preincubated for 20 mins at 37 degC followed by substrate addition measured after 60 mins by fluorescence spectrophotometric analysis; parameters: species or system dengue virus type 4
# [6] = Inhibition of DENV3 recombinant NS2B-NS3 protease expressed in Escherichia coli using Abz-RRRRSAG-nY-NH2 as substrate preincubated for 20 mins at 37 degC followed by substrate addition measured after 60 mins by fluorescence spectrophotometric analysis; parameters: species or system dengue virus type 3
# [7] = Inhibition of DENV2 recombinant NS2B-NS3 protease expressed in Escherichia coli using Abz-RRRRSAG-nY-NH2 as substrate preincubated for 20 mins at 37 degC followed by substrate addition measured after 60 mins by fluorescence spectrophotometric analysis; parameters: species or system dengue virus type 2
# [8] = Inhibition of DENV1 recombinant NS2B-NS3 protease expressed in Escherichia coli using Abz-RRRRSAG-nY-NH2 as substrate preincubated for 20 mins at 37 degC followed by substrate addition measured after 60 mins by fluorescence spectrophotometric analysis; parameters: species or system dengue virus type 1
# [9] = Selectivity index, ratio of CC50 for cytotoxicity against African green monkey Vero cells to EC50 for antiviral activity against DENV4 P11-08 infected in African green monkey Vero cells; assay type: toxicity, cell-based; conditions: read-out: Ratio CC50/EC50
# [10] = Selectivity index, ratio of CC50 for cytotoxicity against African green monkey Vero cells to EC50 for antiviral activity against DENV3 P12-08 infected in African green monkey Vero cells; assay type: toxicity, cell-based; conditions: read-out: Ratio CC50/EC50
# [11] = Selectivity index, ratio of CC50 for cytotoxicity against African green monkey Vero cells to EC50 for antiviral activity against DENV2 New Guinea C infected in African green monkey Vero cells; assay type: toxicity, cell-based; conditions: read-out: Ratio CC50/EC50
# [12] = Selectivity index, ratio of CC50 for cytotoxicity against African green monkey Vero cells to EC50 for antiviral activity against DENV1 P03-08 infected in African green monkey Vero cells; assay type: toxicity, cell-based; conditions: read-out: Ratio CC50/EC50
# dengue virus type 2 = assay: Antiviral activity against DENV2 infected in Golden hamster BHK-21 cells assessed as reduction in viral titer incubated for 72 hrs by plaque-forming assay; assay type: functional, organism-based; conditions: BHK-21, 72 h
# [13] = Inhibition of DENV2 N-terminally hexa-His tagged NS2B (49 to 92 residues) -NS3 (1 to 184 residues) protease using Ac-TTSTRR-pNA as substrate preincubated for 10 mins followed by substrate addition and measured after 120 mins by HTS assay; parameters: species or system dengue virus type 2
# [14] = Inhibition of DENV2 NS2B-NS3 protease using Bz-Nle-Lys-Arg-Arg-AMC as substrate preincubated for 15 mins followed by substrate addition by fluorescence assay; parameters: species or system dengue virus type 2
# [15] = Inhibition of DENV2 TSV01 NS2B-NS3 protease using BOC-GRR-AMC as substrate incubated for 30 mins by spectrofluorometeric assay; parameters: species or system dengue virus type 2
# [16] = Inhibition of DENV2 NS2B-NS3 protease using Boc-Gly-Lys-Arg-AMC as substrate incubated for 30 mins by fluorescence assay; parameters: species or system dengue virus type 2
compound,measurement,setting,value
O=C(Nc1nc2cc(O)c(O)cc2s1)c1ccccc1Oc1ccc2cc(O)ccc2c1,IC50,[1],2 µM
same,IC50,[2],1.6 µM
same,IC50,[3],2.3 µM
same,IC50,[4],2 µM
NC(=O)[C@H](Cc1c[nH]c2ccccc12)NC(=O)[C@H](CS)NC(=O)[C@H](Cc1ccc(O)cc1)NC(=O)[C@@H](N)Cc1c[nH]c2ccccc12 (H-WYCW-NH2),Ki,[5],11.2 µM
same,Ki,[6],24.4 µM
same,Ki,[7],4.8 µM
same,Ki,[8],4.2 µM
Cc1ccc(S(=O)(=O)Nc2cc(SCC(=O)O)c(O)c3ccccc23)cc1[N+](=O)[O-],selectivity ratio,[9],90.8
same,selectivity ratio,[10],27.7
same,selectivity ratio,[11],68.6
same,selectivity ratio,[12],69.3
c1ccc(-c2ccc(Nc3nnc(Nc4ccc(C5=NCCN5)cc4)c4ccccc34)cc2)cc1,EC50,dengue virus type 2,0.23 µM
same,IC50,[13],22.6 µM
CCc1ccc(NS(=O)(=O)c2ccc(N3C(=O)c4ccccc4C3=O)cc2)cc1,IC50,[14],48.2 µM
O=C1c2c(O)ccc([N+](=O)[O-])c2C(=O)c2c([N+](=O)[O-])ccc(O)c21,Ki,[15],432 µM
same,Ki,[16],4.2 µM
